Several values for one entry are separate records, joined by “and”; a condition that tells them apart may be missing. Equal entries are not always repeated. Where two headings read alike, the source gives them in different places.
Key:
[1] = system: phosphorylation of Serine 473 in Akt, MDA-MB-468 cells; assay: In vitro phospho-Ser473 Akt assay; format: cell-based; details: Homo sapiens, MDA-MB-468, Test (c), mean of five occasions, read-out: IC50 versus Serine 473 in Akt, mean value
Protocol: (c) In Vitro Phospho-Ser473 Akt Assay
This assay determines the ability of test compounds to inhibit phosphorylation of Serine 473 in Akt as assessed using Acumen Explorer technology (Acumen Bioscience Limited), a plate reader that can be used to rapidly quantitate features of images generated by laser-scanning.
A MDA-MB-468 human breast adenocarcinoma cell line (LGC Promochem, Teddington, Middlesex, UK, Catalogue No. HTB-132) was routinely maintained at 37° C. with 5% CO2 up to a confluency of 70-90% in DMEM containing 10% heat-inactivated FCS and 1% L-glutamine.
For the assay, the cells were detached from the culture flask using ‘Accutase’ (Innovative Cell Technologies Inc., San Diego, Calif., USA; Catalogue No. AT104) using standard tissue culture methods and resuspended in media to give 1.7×10^5 cells per mL. Aliquots (90 μl) were seeded into each of the inner 60 wells of a black Packard 96 well plate (PerkinElmer, Boston, Mass., USA; Catalogue No. 6005182) to give a density of ˜15000 cells per well. […]
No. 10010015). […] An aliquot of PBS (50 μl) was added to each well and the plates were sealed with black plate sealers and the fluorescence signal was detected and analysed.
Fluorescence dose response data obtained with each compound were analysed and the degree of inhibition of Serine 473 in Akt was expressed as an IC50 value.

recombinant mTOR = target: T1, recombinant mTOR (Homo sapiens, UniProt P42345); assay: In vitro mTOR kinase assay (AlphaScreen); format: biochemical; details: Test (a)
T1 construct: FLAG; made in house
T1 sequence (P42345 1362-2549): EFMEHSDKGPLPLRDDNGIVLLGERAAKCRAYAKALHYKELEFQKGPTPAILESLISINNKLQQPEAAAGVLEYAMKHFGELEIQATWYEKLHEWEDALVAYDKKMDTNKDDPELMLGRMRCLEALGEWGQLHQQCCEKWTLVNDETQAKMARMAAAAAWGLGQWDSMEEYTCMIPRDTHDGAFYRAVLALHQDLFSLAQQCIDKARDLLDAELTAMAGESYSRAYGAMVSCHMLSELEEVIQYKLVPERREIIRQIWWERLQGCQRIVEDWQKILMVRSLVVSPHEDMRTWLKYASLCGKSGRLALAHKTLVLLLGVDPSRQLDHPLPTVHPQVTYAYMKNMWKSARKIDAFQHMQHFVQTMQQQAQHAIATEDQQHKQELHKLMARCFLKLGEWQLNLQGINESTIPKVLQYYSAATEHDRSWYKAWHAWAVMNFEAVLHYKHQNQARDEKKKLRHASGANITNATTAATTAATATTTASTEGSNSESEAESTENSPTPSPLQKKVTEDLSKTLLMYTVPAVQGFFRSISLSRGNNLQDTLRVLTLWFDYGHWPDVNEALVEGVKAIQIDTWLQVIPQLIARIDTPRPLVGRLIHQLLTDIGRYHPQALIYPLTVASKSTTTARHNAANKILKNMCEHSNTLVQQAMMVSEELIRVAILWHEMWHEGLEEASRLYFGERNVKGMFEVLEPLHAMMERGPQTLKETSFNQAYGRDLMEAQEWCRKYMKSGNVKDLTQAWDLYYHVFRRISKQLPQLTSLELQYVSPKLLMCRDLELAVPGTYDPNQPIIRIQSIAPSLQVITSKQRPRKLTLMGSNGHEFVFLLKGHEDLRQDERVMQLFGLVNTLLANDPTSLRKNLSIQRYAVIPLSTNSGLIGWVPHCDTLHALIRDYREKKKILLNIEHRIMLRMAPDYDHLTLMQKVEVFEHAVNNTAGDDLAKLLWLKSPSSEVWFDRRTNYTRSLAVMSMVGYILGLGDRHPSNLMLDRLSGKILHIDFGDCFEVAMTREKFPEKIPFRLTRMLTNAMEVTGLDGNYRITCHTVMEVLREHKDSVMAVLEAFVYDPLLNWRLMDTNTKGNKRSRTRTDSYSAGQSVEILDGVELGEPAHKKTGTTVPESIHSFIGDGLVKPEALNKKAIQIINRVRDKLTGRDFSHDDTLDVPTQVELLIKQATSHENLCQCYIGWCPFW
Protocol: (a) In Vitro mTOR Kinase Assay
The assay used AlphaScreen technology (Gray et al., Analytical Biochemistry, 2003, 313: 234-245) to determine the ability of test compounds to inhibit phosphorylation by recombinant mTOR.
The HEK293 FLAG-tagged mTOR (1362-2549) stable cell line was routinely maintained at 37° C. with 5% CO2 up to a confluency of 70-90% in Dulbecco's modified Eagle's growth medium (DMEM; Invitrogen Limited, Paisley, UK Catalogue No. 41966-029) containing 10% heat-inactivated foetal calf serum (FCS; Sigma, Poole, Dorset, UK, Catalogue No. F0392), 1% L-glutamine (Gibco, Catalogue No. 25030-024) and 2 mg/ml Geneticin
(G418 sulfate; Invitrogen Limited, UK Catalogue No. 10131-027). […]
Each reaction was stopped by the addition of 10 μl of a mixture of EDTA (50 mM), bovine serum albumin (BSA; 0.5 mg/mL) and Tris-HCl pH7.4 buffer (50 mM) containing p70 S6 Kinase (T389) 1A5 Monoclonal Antibody (Cell Signalling Technology, Catalogue No. 9206B) and AlphaScreen Streptavidin donor and Protein A acceptor beads (200 ng; Perkin Elmer, Catalogue No. 6760002B and 6760137R respectively) were added and the assay plates were left for about 20 hours at room temperature in the dark. The resultant signals arising from laser light excitation at 680 nm were read using a Packard Envision instrument. […]
mTOR enzyme inhibition for a given test compound was expressed as an IC50 value.

p110α Type Ia human PI3K = target: T2, p110α Type Ia human PI3K (Homo sapiens, UniProt P42336); assay: In vitro PI3K enzyme assay (AlphaScreen), p110α; format: biochemical; details: Test (b)
T2 construct: full length DNA of each of the p110α, p110β and p110δ Type Ia human PI3K p110 isoforms; 6-His; made in house
T2 sequence (P42336 whole entry, canonical isoform): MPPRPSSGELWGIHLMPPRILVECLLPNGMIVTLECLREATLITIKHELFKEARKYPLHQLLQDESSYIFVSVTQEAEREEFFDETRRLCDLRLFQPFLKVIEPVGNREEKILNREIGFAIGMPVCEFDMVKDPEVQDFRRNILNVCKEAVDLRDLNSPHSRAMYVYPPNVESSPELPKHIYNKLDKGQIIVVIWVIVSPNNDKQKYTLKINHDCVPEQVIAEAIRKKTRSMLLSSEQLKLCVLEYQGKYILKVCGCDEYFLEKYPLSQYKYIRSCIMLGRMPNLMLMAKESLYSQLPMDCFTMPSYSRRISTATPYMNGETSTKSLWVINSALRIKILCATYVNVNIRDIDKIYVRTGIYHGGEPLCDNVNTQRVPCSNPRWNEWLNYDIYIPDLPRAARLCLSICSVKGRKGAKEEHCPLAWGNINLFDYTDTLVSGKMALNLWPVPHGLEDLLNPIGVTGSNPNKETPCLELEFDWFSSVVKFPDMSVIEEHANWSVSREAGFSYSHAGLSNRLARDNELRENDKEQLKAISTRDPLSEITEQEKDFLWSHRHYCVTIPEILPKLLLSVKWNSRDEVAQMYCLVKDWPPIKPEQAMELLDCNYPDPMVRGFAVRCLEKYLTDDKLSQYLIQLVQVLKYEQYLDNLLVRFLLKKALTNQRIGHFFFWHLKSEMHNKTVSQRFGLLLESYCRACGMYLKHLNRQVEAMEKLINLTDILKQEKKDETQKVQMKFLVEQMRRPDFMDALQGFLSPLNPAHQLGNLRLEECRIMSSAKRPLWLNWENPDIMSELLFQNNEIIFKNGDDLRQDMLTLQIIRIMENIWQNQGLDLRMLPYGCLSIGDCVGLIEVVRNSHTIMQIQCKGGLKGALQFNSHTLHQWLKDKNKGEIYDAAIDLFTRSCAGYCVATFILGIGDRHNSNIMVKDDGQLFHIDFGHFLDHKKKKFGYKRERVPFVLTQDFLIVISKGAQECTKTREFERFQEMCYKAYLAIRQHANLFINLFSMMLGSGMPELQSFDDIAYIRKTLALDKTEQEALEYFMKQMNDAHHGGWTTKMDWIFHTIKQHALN
T2 sequence (P27986 whole entry partner, canonical isoform): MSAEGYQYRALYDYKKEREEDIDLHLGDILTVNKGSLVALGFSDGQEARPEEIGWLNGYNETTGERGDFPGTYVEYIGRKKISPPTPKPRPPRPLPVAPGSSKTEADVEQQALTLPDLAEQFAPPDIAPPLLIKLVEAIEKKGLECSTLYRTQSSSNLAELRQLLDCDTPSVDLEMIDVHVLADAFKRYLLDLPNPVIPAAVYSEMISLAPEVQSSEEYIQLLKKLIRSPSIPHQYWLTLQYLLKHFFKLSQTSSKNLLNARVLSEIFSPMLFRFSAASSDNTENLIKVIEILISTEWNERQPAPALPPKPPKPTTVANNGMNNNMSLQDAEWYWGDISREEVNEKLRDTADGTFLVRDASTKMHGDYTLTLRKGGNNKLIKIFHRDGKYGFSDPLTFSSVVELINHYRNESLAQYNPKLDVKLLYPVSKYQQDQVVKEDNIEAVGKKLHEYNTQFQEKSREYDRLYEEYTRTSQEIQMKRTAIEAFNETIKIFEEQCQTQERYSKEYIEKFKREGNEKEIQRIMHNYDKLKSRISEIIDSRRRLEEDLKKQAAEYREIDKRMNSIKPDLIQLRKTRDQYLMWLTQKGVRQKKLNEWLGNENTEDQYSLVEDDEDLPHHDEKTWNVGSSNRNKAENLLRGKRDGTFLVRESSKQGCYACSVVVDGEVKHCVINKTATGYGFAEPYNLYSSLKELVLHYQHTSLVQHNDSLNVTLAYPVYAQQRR
Description: (b) In Vitro PI3K Enzyme Assay
The assay used AlphaScreen technology (Gray et al., Analytical Biochemistry, 2003, 313: 234-245) to determine the ability of test compounds to inhibit phosphorylation by recombinant Type I PI3K enzymes of the lipid PI(4,5)P2.
DNA fragments encoding human PI3K catalytic and regulatory subunits were isolated from cDNA libraries using standard molecular biology and PCR cloning techniques. The selected DNA fragments were used to generate baculovirus expression vectors. In particular, full length DNA of each of the p110α, p110β and p110δ Type Ia human PI3K p110 isoforms (EMBL Accession Nos. HSU79143, S67334, Y10055 for p110 α, p110β and p110δ respectively) were sub-cloned into a pDEST10 vector (Invitrogen Limited, Fountain Drive, Paisley, UK). The vector is a Gateway-adapted version of Fastbac1 containing a 6-His epitope tag. A truncated form of Type Ib human PI3K p110γ isoform corresponding to amino acid residues 144-1102 (EMBL Accession No. X8336A) and the full length human p85α regulatory subunit (EMBL Accession No. HSP13KIN) were also sub-cloned into pFastBac1 vector containing a 6-His epitope tag. The Type Ia p110 constructs were co-expressed with the p85α regulatory subunit. […]
20 hours at room temperature in the dark. The resultant signals arising from laser light excitation at 680 nm were read using a Packard AlphaQuest instrument. […]

IC50 [1] [µM] | IC50 (recombinant mTOR; mean of three occasions, read-out: IC50 versus mTOR kinase, mean value) [µM] | IC50 (recombinant mTOR; single occasions, read-out: IC50 versus mTOR kinase) | IC50 (p110α Type Ia human PI3K; mean of three occasions, read-out: IC50 versus p110α Type Ia human PI3K, mean value) [µM] | IC50 (p110α Type Ia human PI3K; single occasions, read-out: IC50 versus p110α Type Ia human PI3K) | Compound
8.84 |  |  |  |  | O=S(=O)(Cc1cc(N2CCOCC2)nc(-c2ccccn2)n1)c1ccccc1 [Example 44, 4-(benzenesulfonylmethyl)-6-morpholin-4-yl-2-pyridin-2-yl-pyrimidine]
 | 5.4 | 3.9 µM and 4.1 µM and 8.2 µM | 6.8 | 1.9 µM and 13 µM and 5.7 µM | O=S(=O)(CCc1cccc(C(F)(F)F)c1)Cc1cc(N2CCOCC2)nc(-c2ccccn2)n1 [Example 65, 4-morpholin-4-yl-2-pyridin-2-yl-6-[2-[3-(trifluoromethyl)phenyl]ethylsulfonylmethyl] pyrimidine]

From US20110034454A1, “MORPHOLINO PYRIMIDINE DERIVATIVES AND THEIR USE IN THERAPY” (priority 2006, published 2011)
